According to ChEMBL document CHEMBL1649267, “Molecular epidemiology and mechanisms of carbapenem resistance in Pseudomonas aeruginosa” (2009):
Converted amounts (≈) assume the structure as drawn.

Legend:
[1] = test system: Pseudomonas aeruginosa; format: functional; settings: isolate Paebeta-13
[2] = test system: Pseudomonas aeruginosa; format: functional; settings: isolate Paebeta-22
[3] = test system: Pseudomonas aeruginosa; format: functional; settings: isolate Paebeta-09
[4] = test system: Pseudomonas aeruginosa; experiment: microbe, parasite or virus in culture; settings: isolate Paebeta-12
Description: Antibacterial activity against mexB, mexY and mexD expressing Pseudomonas aeruginosa isolate Paebeta-12 harboring A residue at 105 position in PDC- 2 and polymorphic OprD gene by Etest method in presence of cloxacillin

[5] = test system: Pseudomonas aeruginosa; format: functional; settings: isolate Paebeta-25
[6] = test system: Pseudomonas aeruginosa; format: functional; settings: isolate Paebeta-15
[7] = test system: Pseudomonas aeruginosa; format: functional; settings: isolate Paebeta-17
[8] = test system: Pseudomonas aeruginosa; format: functional; settings: isolate Paebeta-05
[9] = test system: Pseudomonas aeruginosa; format: functional; settings: isolate Paebeta-04
[10] = test system: Pseudomonas aeruginosa; format: functional; settings: isolate Paebeta-04; remark: listed apart in the source
[11] = test system: Pseudomonas aeruginosa; format: functional; settings: isolate Paebeta-29
[12] = test system: Pseudomonas aeruginosa; format: functional; settings: isolate Paebeta-28
[13] = test system: Pseudomonas aeruginosa; format: functional; settings: isolate Paebeta-03
[14] = test system: Pseudomonas aeruginosa; format: functional; settings: isolate Paebeta-23
[15] = test system: Pseudomonas aeruginosa; format: functional; settings: isolate Paebeta-20
[16] = test system: Pseudomonas aeruginosa; format: functional; settings: isolate Paebeta-27
[17] = test system: Pseudomonas aeruginosa; format: functional; settings: isolate Paebeta-06
[18] = test system: Pseudomonas aeruginosa; format: functional; settings: isolate Paebeta-09; remark: listed apart in the source
[19] = test system: Pseudomonas aeruginosa; format: functional; settings: isolate Paebeta-18
[20] = test system: Pseudomonas aeruginosa; format: functional; settings: isolate Paebeta-24
[21] = test system: Pseudomonas aeruginosa; format: functional; settings: isolate Paebeta-15; remark: listed apart in the source
[22] = test system: Pseudomonas aeruginosa; format: functional; settings: isolate Paebeta-21
[23] = test system: Pseudomonas aeruginosa; format: functional; settings: isolate Paebeta-07
[24] = test system: Pseudomonas aeruginosa; format: functional; settings: isolate Paebeta-20; remark: listed apart in the source
[25] = test system: Pseudomonas aeruginosa; format: functional; settings: isolate Paebeta-11
[26] = test system: Pseudomonas aeruginosa; format: functional; settings: isolate Paebeta-28; remark: listed apart in the source
[27] = test system: Pseudomonas aeruginosa; format: functional; settings: isolate Paebeta-30
[28] = test system: Pseudomonas aeruginosa; format: functional; settings: isolate Paebeta-29; remark: listed apart in the source
[29] = test system: Pseudomonas aeruginosa; format: functional; settings: isolate Paebeta-02
[30] = test system: Pseudomonas aeruginosa; format: functional; settings: isolate Paebeta-23; remark: listed apart in the source
[31] = test system: Pseudomonas aeruginosa; format: functional; settings: isolate Paebeta-01
[32] = test system: Pseudomonas aeruginosa; format: functional; settings: isolate Paebeta-25; remark: listed apart in the source
[33] = test system: Pseudomonas aeruginosa; format: functional; settings: isolate Paebeta-05; remark: listed apart in the source
[34] = test system: Pseudomonas aeruginosa; format: functional; settings: isolate Paebeta-22; remark: listed apart in the source
[35] = test system: Pseudomonas aeruginosa; format: functional; settings: isolate Paebeta-10
[36] = test system: Pseudomonas aeruginosa; format: functional; settings: isolate Paebeta-26
[37] = test system: Pseudomonas aeruginosa; format: functional; settings: isolate Paebeta-06; remark: listed apart in the source
[38] = test system: Pseudomonas aeruginosa; format: functional; settings: isolate Paebeta-13; remark: listed apart in the source
[39] = test system: Pseudomonas aeruginosa; format: functional; settings: isolate Paebeta-03; remark: listed apart in the source
[40] = test system: Pseudomonas aeruginosa; format: functional; settings: isolate Paebeta-24; remark: listed apart in the source
[41] = test system: Pseudomonas aeruginosa; format: functional; settings: isolate Paebeta-10; remark: listed apart in the source
[42] = test system: Pseudomonas aeruginosa; format: functional; settings: isolate Paebeta-30; remark: listed apart in the source
[43] = test system: Pseudomonas aeruginosa; format: functional; settings: isolate Paebeta-19
[44] = test system: Pseudomonas aeruginosa; format: functional; settings: isolate Paebeta-31
[45] = test system: Pseudomonas aeruginosa; format: functional; settings: isolate Paebeta-12
[46] = test system: Pseudomonas aeruginosa; format: functional; settings: isolate Paebeta-21; remark: listed apart in the source
[47] = test system: Pseudomonas aeruginosa; format: functional; settings: isolate Paebeta-07; remark: listed apart in the source
[48] = test system: Pseudomonas aeruginosa; format: functional; settings: isolate Paebeta-01; remark: listed apart in the source
[49] = test system: Pseudomonas aeruginosa; format: functional; settings: isolate Paebeta-32
[50] = test system: Pseudomonas aeruginosa; format: functional; settings: isolate Paebeta-08
[51] = test system: Pseudomonas aeruginosa; format: functional; settings: isolate Paebeta-14
[52] = test system: Pseudomonas aeruginosa; format: functional; settings: isolate Paebeta-16
[53] = test system: Pseudomonas aeruginosa; format: functional; settings: isolate Paebeta-02; remark: listed apart in the source
[54] = test system: Pseudomonas aeruginosa; format: functional; settings: isolate Paebeta-08; remark: listed apart in the source
[55] = test system: Pseudomonas aeruginosa; format: functional; settings: isolate Paebeta-32; remark: listed apart in the source
[56] = test system: Pseudomonas aeruginosa; format: functional; settings: isolate Paebeta-17; remark: listed apart in the source
[57] = test system: Pseudomonas aeruginosa; format: functional; settings: isolate Paebeta-18; remark: listed apart in the source
[58] = test system: Pseudomonas aeruginosa; format: functional; settings: isolate Paebeta-16; remark: listed apart in the source
[59] = test system: Pseudomonas aeruginosa; format: functional; settings: isolate Paebeta-19; remark: listed apart in the source
[60] = test system: Pseudomonas aeruginosa; format: functional; settings: isolate Paebeta-11; remark: listed apart in the source
[61] = test system: Pseudomonas aeruginosa; format: functional; settings: isolate Paebeta-14; remark: listed apart in the source
[62] = test system: Pseudomonas aeruginosa; format: functional; settings: isolate Paebeta-27; remark: listed apart in the source
[63] = test system: Pseudomonas aeruginosa; format: functional; settings: isolate Paebeta-31; remark: listed apart in the source
[64] = test system: Pseudomonas aeruginosa; format: functional; settings: isolate Paebeta-26; remark: listed apart in the source

## CC(C)(O/N=C(\C(=O)N[C@@H]1C(=O)N2C(C(=O)[O-])=C(C[n+]3ccccc3)CS[C@H]12)c1csc(N)n1)C(=O)O [CEFTAZIDIME]
[1]
  MIC: 4 mg/L (≈ 7.32 µM)
[2]
  MIC: 1 mg/L (≈ 1.83 µM)
[3]
  MIC: 2 mg/L (≈ 3.66 µM)
[4]
  MIC: 1 mg/L (≈ 1.83 µM)
[5]
  MIC: 32 mg/L (≈ 58.5 µM)
[6]
  MIC: 32 mg/L (≈ 58.5 µM)
[7]
  MIC: 8 mg/L (≈ 14.6 µM)
[8]
  MIC: 32 mg/L (≈ 58.5 µM)
[9]
  MIC: 4 mg/L (≈ 7.32 µM)
[10]
  MIC: 32 mg/L (≈ 58.5 µM)
[11]
  MIC: 8 mg/L (≈ 14.6 µM)
[12]
  MIC: 16 mg/L (≈ 29.3 µM)
[13]
  MIC: 2 mg/L (≈ 3.66 µM)
[14]
  MIC: 8 mg/L (≈ 14.6 µM)
[15]
  MIC: 1 mg/L (≈ 1.83 µM)
[16]
  MIC: 16 mg/L (≈ 29.3 µM)
[17]
  MIC: 16 mg/L (≈ 29.3 µM)
[18]
  MIC: 16 mg/L (≈ 29.3 µM)
[19]
  MIC: 32 mg/L (≈ 58.5 µM)
[20]
  MIC: 16 mg/L (≈ 29.3 µM)
[21]
  MIC: 8 mg/L (≈ 14.6 µM)
[22]
  MIC: 32 mg/L (≈ 58.5 µM)
[23]
  MIC: 2 mg/L (≈ 3.66 µM)
[24]
  MIC: 8 mg/L (≈ 14.6 µM)
[25]
  MIC: 2 mg/L (≈ 3.66 µM)
[26]
  MIC: 2 mg/L (≈ 3.66 µM)
[27]
  MIC: 8 mg/L (≈ 14.6 µM)
[28]
  MIC: 8 mg/L (≈ 14.6 µM)
[29]
  MIC: 8 mg/L (≈ 14.6 µM)
[30]
  MIC: 64 mg/L (≈ 117 µM)
[31]
  MIC: 8 mg/L (≈ 14.6 µM)
[32]
  MIC: 4 mg/L (≈ 7.32 µM)
[33]
  MIC: 32 mg/L (≈ 58.5 µM)
[34]
  MIC: 16 mg/L (≈ 29.3 µM)
[35]
  MIC: 2 mg/L (≈ 3.66 µM)
[36]
  MIC: 32 mg/L (≈ 58.5 µM)
[37]
  MIC: 2 mg/L (≈ 3.66 µM)
[38]
  MIC: 0.12 mg/L (≈ 0.22 µM)
[39]
  MIC: 16 mg/L (≈ 29.3 µM)
[40]
  MIC: 64 mg/L (≈ 117 µM)
[41]
  MIC: 16 mg/L (≈ 29.3 µM)
[42]
  MIC: 8 mg/L (≈ 14.6 µM)
[43]
  MIC: 4 mg/L (≈ 7.32 µM)
[44]
  MIC: 32 mg/L (≈ 58.5 µM)
[45]
  MIC: 16 mg/L (≈ 29.3 µM)
[46]
  MIC: 4 mg/L (≈ 7.32 µM)
[47]
  MIC: 16 mg/L (≈ 29.3 µM)
[48]
  MIC: 8 mg/L (≈ 14.6 µM)
[49]
  MIC: 8 mg/L (≈ 14.6 µM)
[50]
  MIC: 2 mg/L (≈ 3.66 µM)
[51]
  MIC: 2 mg/L (≈ 3.66 µM)
[52]
  MIC: 4 mg/L (≈ 7.32 µM)
[53]
  MIC: 8 mg/L (≈ 14.6 µM)
[54]
  MIC: 16 mg/L (≈ 29.3 µM)
[55]
  MIC: 32 mg/L (≈ 58.5 µM)
[56]
  MIC: 64 mg/L (≈ 117 µM)
[57]
  MIC: 128 mg/L (≈ 234 µM)
[58]
  MIC: 32 mg/L (≈ 58.5 µM)
[59]
  MIC: 8 mg/L (≈ 14.6 µM)
[60]
  MIC: 16 mg/L (≈ 29.3 µM)
[61]
  MIC: 16 mg/L (≈ 29.3 µM)
[62]
  MIC: 4 mg/L (≈ 7.32 µM)
[63]
  MIC: 16 mg/L (≈ 29.3 µM)
[64]
  MIC: 4 mg/L (≈ 7.32 µM)

## C[C@@H](O)[C@H]1C(=O)N2C(C(=O)O)=C(S[C@@H]3CN[C@H](C(=O)N(C)C)C3)[C@H](C)[C@H]12 [MEROPENEM]
[1]
  MIC: 8 mg/L (≈ 20.9 µM)
[2]
  MIC: 1 mg/L (≈ 2.61 µM)
[3]
  MIC: 4 mg/L (≈ 10.4 µM)
[4]
  MIC: 2 mg/L (≈ 5.22 µM)
[5]
  MIC: 8 mg/L (≈ 20.9 µM)
[6]
  MIC: 8 mg/L (≈ 20.9 µM)
[7]
  MIC: 4 mg/L (≈ 10.4 µM)
[8]
  MIC: 8 mg/L (≈ 20.9 µM)
[9]
  MIC: 16 mg/L (≈ 41.7 µM)
[10]
  MIC: 16 mg/L (≈ 41.7 µM)
[11]
  MIC: 32 mg/L (≈ 83.4 µM)
[12]
  MIC: 4 mg/L (≈ 10.4 µM)
[13]
  MIC: 4 mg/L (≈ 10.4 µM)
[14]
  MIC: 8 mg/L (≈ 20.9 µM)
[15]
  MIC: 4 mg/L (≈ 10.4 µM)
[17]
  MIC: 8 mg/L (≈ 20.9 µM)
[18]
  MIC: 8 mg/L (≈ 20.9 µM)
[19]
  MIC: 32 mg/L (≈ 83.4 µM)
[20]
  MIC: 16 mg/L (≈ 41.7 µM)
[21]
  MIC: 4 mg/L (≈ 10.4 µM)
[22]
  MIC: 32 mg/L (≈ 83.4 µM)
[23]
  MIC: 2 mg/L (≈ 5.22 µM)
[24]
  MIC: 8 mg/L (≈ 20.9 µM)
[25]
  MIC: 2 mg/L (≈ 5.22 µM)
[26]
  MIC: 4 mg/L (≈ 10.4 µM)
[27]
  MIC: 8 mg/L (≈ 20.9 µM)
[28]
  MIC: 32 mg/L (≈ 83.4 µM)
[29]
  MIC: 4 mg/L (≈ 10.4 µM)
[30]
  MIC: 16 mg/L (≈ 41.7 µM)
[31]
  MIC: 8 mg/L (≈ 20.9 µM)
[32]
  MIC: 8 mg/L (≈ 20.9 µM)
[33]
  MIC: 8 mg/L (≈ 20.9 µM)
[34]
  MIC: 4 mg/L (≈ 10.4 µM)
[35]
  MIC: 4 mg/L (≈ 10.4 µM)
[36]
  MIC: 4 mg/L (≈ 10.4 µM)
[37]
  MIC: 2 mg/L (≈ 5.22 µM)
[38]
  MIC: 2 mg/L (≈ 5.22 µM)
[39]
  MIC: 8 mg/L (≈ 20.9 µM)
[40]
  MIC: 32 mg/L (≈ 83.4 µM)
[41]
  MIC: 8 mg/L (≈ 20.9 µM)
[42]
  MIC: 8 mg/L (≈ 20.9 µM)
[43]
  MIC: 4 mg/L (≈ 10.4 µM)
[44]
  MIC: 8 mg/L (≈ 20.9 µM)
[45]
  MIC: 8 mg/L (≈ 20.9 µM)
[46]
  MIC: 16 mg/L (≈ 41.7 µM)
[47]
  MIC: 8 mg/L (≈ 20.9 µM)
[48]
  MIC: 8 mg/L (≈ 20.9 µM)
[49]
  MIC: 8 mg/L (≈ 20.9 µM)
[50]
  MIC: 2 mg/L (≈ 5.22 µM)
[51]
  MIC: 2 mg/L (≈ 5.22 µM)
[52]
  MIC: 2 mg/L (≈ 5.22 µM)
[53]
  MIC: 4 mg/L (≈ 10.4 µM)
[54]
  MIC: 8 mg/L (≈ 20.9 µM)
[55]
  MIC: 16 mg/L (≈ 41.7 µM)
[56]
  MIC: 8 mg/L (≈ 20.9 µM)
[58]
  MIC: 4 mg/L (≈ 10.4 µM)
[59]
  MIC: 4 mg/L (≈ 10.4 µM)
[60]
  MIC: 8 mg/L (≈ 20.9 µM)
[61]
  MIC: 4 mg/L (≈ 10.4 µM)
[63]
  MIC: 8 mg/L (≈ 20.9 µM)
[64]
  MIC: 4 mg/L (≈ 10.4 µM)
